Converted amounts (≈) assume the structure as drawn.
Legend:
[1] = system: Pseudomonas aeruginosa; assay: Antimicrobial activity, MIC by agar dilution method; format: cell-based
[2] = system: Xanthomonas oryzae; format: cell-based; settings: agar dilution method
[3] = system: Sarcina lutea ATCC 1001; assay: Antimicrobial activity, MIC by agar dilution method; format: cell-based; settings: Sarcina lutea ATCC 1001, agar dilution method
[4] = system: Trichophyton interdigitalis; assay: as above; format: cell-based
[5] = system: Mycobacterium smegmatis; assay: as above; format: cell-based
[6] = system: Aspergillus niger; assay: as above; format: cell-based
[7] = system: Alternaria kikuchiana; assay: as above; format: cell-based
[8] = system: Piricularia oryzae; format: cell-based
[9] = system: Microsporum gypseum; assay: Antimicrobial activity, MIC by agar dilution method; format: cell-based
[10] = system: leukemia P388; assay: Antitumor activity on leukemia P388; settings: i.p.; for ILS (Increased life span) P388: vs untreated control
[11] = system: Saccharomyces sake; assay: Antimicrobial activity, MIC by agar dilution method; format: cell-based
[12] = system: Ehrlich ascites carcinoma; assay: Antitumor activity on Ehrlich ascites carcinoma; settings: i.p.; for ILS (Increased life span) Ehrlich: vs untreated control
[13] = system: Candida albicans; assay: Antimicrobial activity, MIC by agar dilution method; format: cell-based
[14] = system: Bacillus subtilis PCI 219; assay: as above; format: cell-based; settings: Bacillus subtilis PCI 219, agar dilution method
[15] = system: Staphylococcus aureus FDA-209P; assay: as above; format: cell-based
[16] = system: Escherichia coli NIHJ; assay: as above; format: cell-based
[17] = system: mice; assay: Acute toxicity in mice; format: in vivo
Method: Acute toxicity (LD50) in mice; approximately 400 mg/kg (i.p.), and over 1000 mg/kg (p.o.)

[18] = Day 1, 75 mg/kg/day, total 75 mg/kg
[19] = Day 1, 150 mg/kg/day, total 150 mg/kg
[20] = Day 1, 300 mg/kg/day, total 300 mg/kg
[21] = Days 1, 5, 9, 25 mg/kg/day, total 75 mg/kg
[22] = Days 1, 5, 9, 50 mg/kg/day, total 150 mg/kg
[23] = Days 1~9, 8.8 mg/kg/day, total 75 mg/kg
[24] = Days 1~9, 16.7 mg/kg/day, total 150 mg/kg
[25] = Days 1~9, 33.3 mg/kg/day, total 300 mg/kg

Q: Which results are given for CO[C@H]1C[C@@H]2\C=C(C)/C=C/C=C\C(=O)N[C@H](c3ccccc3)C/C=C/CC[C@H](O)CC(=O)C2=C1O [stubomycin]?
A: Minimum inhibitory concentration (MIC) [1]: > 200 µg/mL; Minimum inhibitory concentration (MIC) [2]: > 100 µg/mL; Minimum inhibitory concentration (MIC) [3]: 0.4 µg/mL (≈ 0.838 µM); Minimum inhibitory concentration (MIC) [4]: 6.3 µg/mL (≈ 13.2 µM); Minimum inhibitory concentration (MIC) [5]: 3.1 µg/mL (≈ 6.49 µM); Minimum inhibitory concentration (MIC) [6]: > 100 µg/mL; Minimum inhibitory concentration (MIC) [7]: 6.3 µg/mL (≈ 13.2 µM); Minimum inhibitory concentration (MIC) [8]: 3.1 µg/mL (≈ 6.49 µM); Minimum inhibitory concentration (MIC) [9]: 12.5 µg/mL (≈ 26.2 µM); MSD (Median survival day) P388 [10, 18]: 17 days; ILS (Increased life span) P388 [10, 18]: 42%; MSD (Median survival day) P388 [10, 19]: 17 days; ILS (Increased life span) P388 [10, 19]: 42%; MSD (Median survival day) P388 [10, 20]: 17 days; ILS (Increased life span) P388 [10, 20]: 42%; MSD (Median survival day) P388 [10, 21]: 16 days; ILS (Increased life span) P388 [10, 21]: 33%; MSD (Median survival day) P388 [10, 22]: 15 days; ILS (Increased life span) P388 [10, 22]: 25%; MSD (Median survival day) P388 [10, 23]: 15 days; ILS (Increased life span) P388 [10, 23]: 25%; MSD (Median survival day) P388 [10, 24]: 11 days; ILS (Increased life span) P388 [10, 24]: -8%; MSD (Median survival day) P388 [10, 25]: 9 days; ILS (Increased life span) P388 [10, 25]: -25%; Minimum inhibitory concentration (MIC) [11]: > 200 µg/mL; MSD (Median survival day) Ehrlich [12, 18]: 28 days; Number of cured mice, Ehrlich [12, 18]: 1; ILS (Increased life span) Ehrlich [12, 18]: 47%; MSD (Median survival day) Ehrlich [12, 19]: 51 days; ILS (Increased life span) Ehrlich [12, 19]: 168%; MSD (Median survival day) Ehrlich [12, 20]: 21 days; ILS (Increased life span) Ehrlich [12, 20]: 11%; MSD (Median survival day) Ehrlich [12, 21]: 33 days; Number of cured mice, Ehrlich [12, 21]: 1; ILS (Increased life span) Ehrlich [12, 21]: 74%; MSD (Median survival day) Ehrlich [12, 22]: 16 days; ILS (Increased life span) Ehrlich [12, 22]: -16%; ILS (Increased life span) Ehrlich [12, 23]: 11%; MSD (Median survival day) Ehrlich [12, 24]: 50 days; Number of cured mice, Ehrlich [12, 24]: 1; ILS (Increased life span) Ehrlich [12, 24]: 163%; MSD (Median survival day) Ehrlich [12, 25]: 33 days; Number of cured mice, Ehrlich [12, 25]: 1; ILS (Increased life span) Ehrlich [12, 25]: 74%; MSD (Median survival day) Ehrlich ([12]; Days 1~9, total 75 mg/kg): 21 days; Minimum inhibitory concentration (MIC) [13]: > 100 µg/mL; Minimum inhibitory concentration (MIC) [14]: 0.4 µg/mL (≈ 0.838 µM); Minimum inhibitory concentration (MIC) [15]: 3.1 µg/mL (≈ 6.49 µM); Minimum inhibitory concentration (MIC) [16]: > 200 µg/mL; Acute toxicity (LD50) ([17]; i.p.): approximately 400 mg/kg; Acute toxicity (LD50) ([17]; p.o.): over 1000 mg/kg

Reference: patent US4512976A, “Antibiotic stubomycin and process for the production thereof” (The Kitasato Institute, priority 1980, dated 1985)
